From patent US9809583B2 (priority 2014, dated 2017)
Where two headings read alike, the source gives them in different places.

Tests used:
androgen receptor (hAR) [1] = biological target: T1, androgen receptor (hAR) (Homo sapiens (Human), UniProt P10275); test: biochemical; type: binding
Protocol: In order to examine binding ability of the agonists of the present invention to androgen receptors, the following in-vitro experiment was performed. African green monkey kidney fibroblast-like cell line, COS-7 (ATCC, #CRL-1651) was seeded in a 48-well plate at a density of 2.5×10^4 cells/well, and cultured for 24 hours. Then, a plasmid hAR-mixed medium was added thereto. […] Thereafter, the cells were lysed and the amount of [3H]MIB bound to the intracellular androgen receptors was measured using a radiation dosimeter.

castrated male rats = test: Efficacy test in castrated male rat (Hershberger assay); type: in vivo, SD (Sprague-Dawley) rat; conditions: castrated male SD rats, oral once a day for 14 days
Protocol: SD (Sprague-Dawley) male rats (7-week-old) were castrated under ketamine/xylazine anesthesia, and 5 rats were randomly assigned to one group. From the next day, the agonists were dissolved in a vehicle solution and orally administered at a dose of 5 ml per kg once a day for 14 days. As the vehicle, DMSO, Co-solvent, and DW were prepared at a ratio of 4:80:16 (v/v/v), and Co-solvent was prepared by mixing PEG400, Ethanol, and Tween 80 at a ratio of 85:10:5 (v/v/v). 24 hours after last administration of the drug, their body weight was measured and killed. Thereafter, levator ani muscle, ventral prostate, and seminal vesicles were removed and weighed (Hershberger assay). The following Table 6 represents the result of the efficacy test in castrated male rats.

androgen receptor (hAR) [2] = biological target: T1, androgen receptor (hAR); test: Test of transcriptional activity (hAR / ARE-Luc dual-luciferase assay in CHO cells); type: cell-based; conditions: CHO cells with hAR and ARE-Luc, 24 hours; 10 nM DHT = 100%; read-out: EC50 [nM] (mean ± SE)
Procedure, shortened: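 CHO cells cultured 24 h, then transfected with hAR and ARE-Luc plasmids. Transfected cells treated with 0.1˜10,000 nM compound for 24 h; transcriptional activity read by dual-luciferase reporter.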

[3] = 1 nM [3H]MIB, hAR-transfected COS-7 cells, 2 hours, read-out: IC50 [nM] (mean ± SE)

T1 sequence (P10275 whole entry): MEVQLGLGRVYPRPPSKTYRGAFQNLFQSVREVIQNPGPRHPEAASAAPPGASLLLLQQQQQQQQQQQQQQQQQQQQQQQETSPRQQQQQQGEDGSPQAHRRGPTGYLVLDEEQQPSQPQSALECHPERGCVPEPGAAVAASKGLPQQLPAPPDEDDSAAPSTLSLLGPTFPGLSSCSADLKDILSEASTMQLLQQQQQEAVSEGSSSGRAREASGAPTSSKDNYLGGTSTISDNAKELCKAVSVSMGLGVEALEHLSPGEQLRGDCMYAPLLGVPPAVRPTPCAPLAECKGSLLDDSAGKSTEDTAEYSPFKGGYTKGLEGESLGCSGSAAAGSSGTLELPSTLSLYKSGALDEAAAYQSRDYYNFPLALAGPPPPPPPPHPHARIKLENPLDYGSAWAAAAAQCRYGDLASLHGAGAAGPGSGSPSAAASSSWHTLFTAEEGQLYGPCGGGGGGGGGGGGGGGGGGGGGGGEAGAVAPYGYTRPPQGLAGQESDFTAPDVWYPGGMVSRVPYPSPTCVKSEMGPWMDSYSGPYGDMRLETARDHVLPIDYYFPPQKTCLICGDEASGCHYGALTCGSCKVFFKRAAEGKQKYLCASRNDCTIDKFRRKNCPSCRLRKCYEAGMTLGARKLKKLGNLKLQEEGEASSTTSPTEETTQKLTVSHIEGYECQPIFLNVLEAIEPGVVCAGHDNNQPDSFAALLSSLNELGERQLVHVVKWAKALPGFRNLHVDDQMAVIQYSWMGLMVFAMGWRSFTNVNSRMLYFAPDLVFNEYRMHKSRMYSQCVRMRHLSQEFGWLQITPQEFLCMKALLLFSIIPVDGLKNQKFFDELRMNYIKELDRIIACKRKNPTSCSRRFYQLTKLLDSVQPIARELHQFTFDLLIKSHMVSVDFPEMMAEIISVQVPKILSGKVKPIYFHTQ

N#Cc1ccc(COC[C@H]2CN(c3ccc(C#N)c(C(F)(F)F)c3)[C@H](C(F)(F)F)O2)cc1 [Example 4, 4-((2S,5R)-5-(((4-cyanobenzyl)oxy)methyl)-2-(trifluoromethyl)oxazolidin-3-yl)-2-(trifluoromethyl)benzonitrile]
IC50 (androgen receptor (hAR) [1]; [3]): 657 nM

N#Cc1ccc(OC[C@H]2CN(c3ccc(C#N)c(C(F)(F)F)c3)[C@@H](C(F)(F)F)O2)cc1 [Example 5, 4-((2R,5R)-5-((4-cyanophenoxy)methyl)-2-(trifluoromethyl)oxazolidin-3-yl)-2-(trifluoromethyl)benzonitrile]
IC50 (androgen receptor (hAR) [1]): 91.6 nM

N#Cc1ccc(N2C[C@@H](COc3ccc(C(=O)O)cc3)O[C@@H]2C(F)(F)F)cc1C(F)(F)F [Example 9, 4-(((2R,5S)-3-(4-cyano-3-(trifluoromethyl)phenyl)-2-(trifluoromethyl)oxazolidin-5-yl)methoxy)benzoic acid]
IC50 (androgen receptor (hAR) [1]): 367 nM

N#Cc1ccc(N2C[C@@H](COc3ccc([N+](=O)[O-])cc3Cl)O[C@@H]2C(F)(F)F)cc1C(F)(F)F [Example 12, 4-((2R,5S)-5-((2-chloro-4-nitrophenoxy)methyl)-2-(trifluoromethyl)oxazolidin-3-yl)-2-(trifluoromethyl)benzonitrile]
IC50 (androgen receptor (hAR) [1]; [3]): 145 nM

N#Cc1ccc(OC[C@H]2CN(c3ccc(C#N)c(C(F)(F)F)c3)[C@H](C(F)(F)F)O2)cc1 [Example 20, 4-((2S,5R)-5-((4-cyanophenoxy)methyl)-2-(trifluoromethyl)oxazolidin-3-yl)-2-(trifluoromethyl)benzonitrile]
IC50 (androgen receptor (hAR) [1]; [3]): 1080 nM

N#Cc1ccc(N2C[C@H]([C@@H](O)C(F)(F)F)O[C@H]2C(F)(F)F)cc1C(F)(F)F [Example 21, 4-((2S,5R)-5-((R)-2,2,2-trifluoro-1-hydroxyethyl)-2-(trifluoromethyl)oxazolidin-3-yl)-2-(trifluoromethyl)benzonitrile]
IC50 (androgen receptor (hAR) [1]; [3]): 1060 nM

N#Cc1ccc(N2C[C@H]([C@H](O)C(F)(F)F)O[C@H]2C(F)(F)F)cc1C(F)(F)F [Example 22, 4-((2S,5R)-5-((S)-2,2,2-trifluoro-1-hydroxyethyl)-2-(trifluoromethyl)oxazolidin-3-yl)-2-(trifluoromethyl)benzonitrile]
IC50 (androgen receptor (hAR) [1]; [3]): 1870 nM

(2R,5S)-N-(4-acetamidophenyl)-3-(3-chloro-4-nitrophenyl)-2-(trifluoromethyl)oxazolidine-5-carboxamide [Example 123]
levator ani muscle weight % relative to intact control group (castrated male rats; 0.03 mg/kg): 3.5 ± 0.5% | seminal vesicles weight % relative to intact control group (castrated male rats; 0.03 mg/kg): 0.3 ± 0.0% | ventral prostate weight % relative to intact control group (castrated male rats; 0.03 mg/kg): 0.5 ± 0.1% | levator ani muscle weight % relative to intact control group (castrated male rats; 0.1 mg/kg): 7.00 ± 0.7% | seminal vesicles weight % relative to intact control group (castrated male rats; 0.1 mg/kg): 0.2 ± 0.0% | levator ani muscle weight % relative to intact control group (castrated male rats; 0.3 mg/kg): 14.7 ± 1.5% | seminal vesicles weight % relative to intact control group (castrated male rats; 0.3 mg/kg): 0.1 ± 0.0% | ventral prostate weight % relative to intact control group (castrated male rats; 0.3 mg/kg): 1.6 ± 0.2% | levator ani muscle weight % relative to intact control group (castrated male rats; 1 mg/kg): 23.0 ± 1.1% | seminal vesicles weight % relative to intact control group (castrated male rats; 1 mg/kg): 0.5 ± 0.1% | ventral prostate weight % relative to intact control group (castrated male rats; 1 mg/kg): 0.7 ± 0.2% | levator ani muscle weight % relative to intact control group (castrated male rats; 3 mg/kg): 40.2 ± 4.2% | seminal vesicles weight % relative to intact control group (castrated male rats; 3 mg/kg): 2.8 ± 1.2% | ventral prostate weight % relative to intact control group (castrated male rats; 3 mg/kg): 5.6 ± 1.9% | levator ani muscle weight % relative to intact control group (castrated male rats; 10 mg/kg): 58.7 ± 4.1% | seminal vesicles weight % relative to intact control group (castrated male rats; 10 mg/kg): 11.0 ± 2.3% | ventral prostate weight % relative to intact control group (castrated male rats; 10 mg/kg): 7.9 ± 2.2% | levator ani muscle weight % relative to intact control group (castrated male rats; 30 mg/kg): 78.9 ± 4.0% | seminal vesicles weight % relative to intact control group (castrated male rats; 30 mg/kg): 30.5 ± 5.7% | ventral prostate weight % relative to intact control group (castrated male rats; 30 mg/kg): 23.0 ± 2.9% | levator ani muscle weight % relative to intact control group (castrated male rats; 100 mg/kg): 88.5 ± 4.7% | seminal vesicles weight % relative to intact control group (castrated male rats; 100 mg/kg): 58.7 ± 10.8% | ventral prostate weight % relative to intact control group (castrated male rats; 100 mg/kg): 39.0 ± 9.8% | EC50 (androgen receptor (hAR) [2]): 7.34 nM
